Values of other authors, collected in US20250089716A1, “IMMEDIATE-RELEASE PESTICIDE FORMULATION” (priority 2022, published 2025).

Details: extender component; unit not given

Row | Compound | Water solubility
1 | O=C[C@H](O)[C@@H](O)[C@H](O)CO [Xylose] | 133 g/100 ml
2 | [Cl-].[Cl-].[Zn+2] [Zinc chloride] | 395 g/100 ml
3 | OC[C@H]1O[C@@](CO)(O[C@H]2O[C@H](CO)[C@@H](O)[C@H](O)[C@H]2O)[C@@H](O)[C@@H]1O [Sucrose] | 202 g/100 ml
4 | [Cl-].[K+] [Potassium chloride] | 34 g/100 ml
5 | Flactose | 375 g/100 ml
6 | OC[C@@H](O)[C@@H](O)[C@H](O)[C@@H](O)CO [Sorbitol] | 235 g/100 ml
7 | NC(N)=O [Urea] | 100 g/100 ml
